These results are taken from patent publication US12264163B2, “Compounds and methods for treating fibrotic pathologies” (Mayo Foundation for Medical Education and Research, priority 2019, dated 2025).

One assay has as its system αSMA. Description: αSMA intensity (fibroblast activation) in IPF patient-derived lung fibroblasts + TGFβ, dopaminergic agonist library. It is filed as cell-based, human. The conditions noted are these: 1 μM + TGFβ, 72 hours. How it is done: (§1) Media was then exchanged for the indicated conditions for each experiment. […] Cells or tissue sections were incubated overnight with mouse monoclonal antibody against αSMA (Sigma-Aldrich F3777), and/or a rabbit monoclonal antibody against YAP/TAZ (Cell Signaling D24E4) diluted 1:200 in PBS with 1% BSA. Cells were then washed and exposed to flourescence-conjugated secondary antibodies (Invitrogen) diluted 1:1000 and DAPI (Thermo Fisher Scientific). Images were taken with a Cytation5 (BioTek) microscope. For scoring αSMA positive cells (FIG. 12), an observer blinded to the treatment conditions counted αSMA-positive cells using a visual threshold for bright fibrous staining; a minimum of 200 cells was counted for each condition. YAP/TAZ localization was quantified (FIGS. 6-10, 24-26, and 29-30) using Gen5 (Biotek) software. Images were taken at 4× magnification of both DAPI and YAP/TAZ staining. […] Quantification of double positive (YAP/TAZ and αSMA) cells from lung tissue sections (FIG. 17-21) was performed similarly; however separate thresholds were established for both YAP/TAZ and αSMA. A minimum of 4000 cells was quantified for each mouse.

For the next assay, the system named is YAP/TAZ. Description: YAP/TAZ nuclear localization in IPF patient-derived lung fibroblasts treated with dopaminergic agonists. It counts as cell-based, human. The note with it: 10 μM, 2 hours. How it is done:
IPF patient-derived lung fibroblasts cells treated 2 hours prior to fixation with diverse dopaminergic agonists (10 μM). N=4 different patient samples. % nuclear localization of YAP/TAZ was determined using automated imaging software. Scale bar represents 100 μm.
as §1

Each structure is given as a SMILES string. Where a name gives a salt, the structure may show the parent alone.

For `CCCN(CCc1ccccc1)C1CCc2c(O)cccc2C1.Cl` (racemic) [(±)-2-(N-phenylethyl-N-propyl)amino-5-hydroxytetralin], the “αSMA intensity (% of DMSO control)” value is listed as 65.43 % of DMSO control with αSMA (IPF-1 patient fibroblasts), 52.77 % of DMSO control in the assay with αSMA (IPF-2 patient fibroblasts), 60.4844 % of DMSO control in the assay with αSMA (IPF-3 patient fibroblasts) and 51.1 % of DMSO control in the assay on αSMA (IPF-4 patient fibroblasts). In addition, the “Nuclear localization (% of total cells)” value with YAP/TAZ (IPF-1 patient fibroblasts) is given as 68.85 % of total cells; with YAP/TAZ (IPF-2 patient fibroblasts), 60.86 % of total cells; in the assay with YAP/TAZ (IPF-3 patient fibroblasts) it was 68 % of total cells; in the assay with YAP/TAZ (IPF-4 patient fibroblasts), 56.552 % of total cells.

For the molecule `CCCN1CCO[C@@H]2c3cc(O)ccc3OC[C@H]21.Cl` (racemic) [(±)-PD 128,907•HCl, (±)-PD 128,907], the “αSMA intensity (% of DMSO control)” value is 83.68 % of DMSO control with αSMA (IPF-1 patient fibroblasts), 85.45 % of DMSO control in the assay on αSMA (IPF-2 patient fibroblasts), 94.2538 % of DMSO control in the assay on αSMA (IPF-3 patient fibroblasts) and 75.15 % of DMSO control in the assay on αSMA (IPF-4 patient fibroblasts). For the same molecule, the “Nuclear localization (% of total cells)” value with YAP/TAZ (IPF-1 patient fibroblasts) is recorded as 60.13 % of total cells; with YAP/TAZ (IPF-2 patient fibroblasts) it was 49.54 % of total cells; in the assay with YAP/TAZ (IPF-3 patient fibroblasts), 78.48 % of total cells; in the assay with YAP/TAZ (IPF-4 patient fibroblasts), 60.66 % of total cells.

For the molecule `Br.C=CCN1CCc2c(cc(O)c(O)c2Cl)C(c2ccccc2)C1` (racemic) [(±)-SKF-82958•HBr, (±)-SKF-82958], the “αSMA intensity (% of DMSO control)” value with αSMA (IPF-1 patient fibroblasts) is 11.78 % of DMSO control; in the assay on αSMA (IPF-2 patient fibroblasts), 4.966 % of DMSO control; with αSMA (IPF-3 patient fibroblasts), 2.428 % of DMSO control; with αSMA (IPF-4 patient fibroblasts) it was 9.326 % of DMSO control. In addition, the “Nuclear localization (% of total cells)” value with YAP/TAZ (IPF-1 patient fibroblasts) is 29.15 % of total cells; in the assay on YAP/TAZ (IPF-2 patient fibroblasts) it was 38 % of total cells; in the assay with YAP/TAZ (IPF-3 patient fibroblasts), 38 % of total cells; in the assay on YAP/TAZ (IPF-4 patient fibroblasts) it was 12.29 % of total cells.

For `NCCc1ccc(O)cc1` [4-Hydroxyphenethylamine•HCl, 4-Hydroxyphenethylamine], the “Nuclear localization (% of total cells)” value was 56.52 % of total cells in the assay on YAP/TAZ (IPF-1 patient fibroblasts), 45.69 % of total cells in the assay with YAP/TAZ (IPF-2 patient fibroblasts), 76.57 % of total cells with YAP/TAZ (IPF-3 patient fibroblasts) and 43.3719 % of total cells in the assay on YAP/TAZ (IPF-4 patient fibroblasts).

Take `Br.NC1CCc2cc(O)c(O)cc2C1` (stereo not drawn) [6,7-ADTN•HBr, 6,7-ADTN]: the “αSMA intensity (% of DMSO control)” value in the assay on αSMA (IPF-1 patient fibroblasts) is 37.14 % of DMSO control; in the assay on αSMA (IPF-2 patient fibroblasts), 4.182 % of DMSO control; in the assay with αSMA (IPF-3 patient fibroblasts), 9.909 % of DMSO control; in the assay on αSMA (IPF-4 patient fibroblasts) it was 4.888 % of DMSO control. The “Nuclear localization (% of total cells)” value is 43.89 % of total cells in the assay with YAP/TAZ (IPF-1 patient fibroblasts), 44 % of total cells with YAP/TAZ (IPF-2 patient fibroblasts), 65.5 % of total cells in the assay on YAP/TAZ (IPF-3 patient fibroblasts) and 52.65 % of total cells with YAP/TAZ (IPF-4 patient fibroblasts).

In the case of `CCCN(CCC)[C@@H]1CCc2c(OC)cccc2[C@@H]1C.O=C(O)/C=C/C(=O)O` [(+)-UH 232 maleate, (+)-UH 232], the “αSMA intensity (% of DMSO control)” value in the assay with αSMA (IPF-1 patient fibroblasts) is 82.91 % of DMSO control; in the assay with αSMA (IPF-2 patient fibroblasts), 63.85 % of DMSO control; in the assay on αSMA (IPF-3 patient fibroblasts), 85.81 % of DMSO control; in the assay on αSMA (IPF-4 patient fibroblasts), 65.71 % of DMSO control. For the same molecule, the “Nuclear localization (% of total cells)” value in the assay with YAP/TAZ (IPF-1 patient fibroblasts) was 61.9521 % of total cells; in the assay with YAP/TAZ (IPF-2 patient fibroblasts), 68 % of total cells; in the assay on YAP/TAZ (IPF-3 patient fibroblasts) it was 71.85 % of total cells; in the assay on YAP/TAZ (IPF-4 patient fibroblasts) it was 67.27 % of total cells.

With `NC[C@@H]1O[C@H](C23CC4CC(CC(C4)C2)C3)Cc2c1ccc(O)c2O` [A-77636•HCl•H2O, A-77636], the “αSMA intensity (% of DMSO control)” value was 5.808 % of DMSO control in the assay on αSMA (IPF-1 patient fibroblasts), 0.7188 % of DMSO control in the assay with αSMA (IPF-2 patient fibroblasts), 0.06766 % of DMSO control in the assay with αSMA (IPF-3 patient fibroblasts) and 12.43 % of DMSO control in the assay on αSMA (IPF-4 patient fibroblasts). Also, the “Nuclear localization (% of total cells)” value in the assay on YAP/TAZ (IPF-1 patient fibroblasts) is listed as 26.46 % of total cells; in the assay with YAP/TAZ (IPF-2 patient fibroblasts), 30.88 % of total cells; in the assay on YAP/TAZ (IPF-3 patient fibroblasts), 41.33 % of total cells; in the assay with YAP/TAZ (IPF-4 patient fibroblasts), 37.79 % of total cells.

Consider `C=CCN1CCc2nc(N)sc2CC1.Cl.Cl` [B-HT 920•2HCl, B-HT 920], for which the “αSMA intensity (% of DMSO control)” value with αSMA (IPF-1 patient fibroblasts) was 74.98 % of DMSO control; with αSMA (IPF-2 patient fibroblasts), 58.97 % of DMSO control; in the assay on αSMA (IPF-3 patient fibroblasts), 70.12 % of DMSO control; with αSMA (IPF-4 patient fibroblasts) it was 54.23 % of DMSO control. For the same molecule, the “Nuclear localization (% of total cells)” value was 75.68 % of total cells in the assay on YAP/TAZ (IPF-1 patient fibroblasts), 46.9 % of total cells in the assay on YAP/TAZ (IPF-2 patient fibroblasts), 64.79 % of total cells in the assay with YAP/TAZ (IPF-3 patient fibroblasts) and 76.24 % of total cells in the assay on YAP/TAZ (IPF-4 patient fibroblasts).

In the case of `CC(C)C[C@H]1C(=O)N2CCC[C@H]2[C@]2(O)O[C@](NC(=O)[C@@H]3C=C4c5cccc6[nH]c(Br)c(c56)C[C@H]4N(C)C3)(C(C)C)C(=O)N12` [Bromocriptine mesylate, Bromocriptine], the “Nuclear localization (% of total cells)” value with YAP/TAZ (IPF-1 patient fibroblasts) is 73.03 % of total cells; with YAP/TAZ (IPF-2 patient fibroblasts) it was 52.81 % of total cells; with YAP/TAZ (IPF-3 patient fibroblasts), 64.09 % of total cells; with YAP/TAZ (IPF-4 patient fibroblasts) it was 64.6 % of total cells.

On to `CN1Cc2ccccc2[C@@H]2c3cccc4[nH]cc(c34)C[C@H]21` [CY 208-243], for which the “αSMA intensity (% of DMSO control)” value with αSMA (IPF-1 patient fibroblasts) is on record as 21.01 % of DMSO control; in the assay with αSMA (IPF-2 patient fibroblasts), 2.28 % of DMSO control; in the assay with αSMA (IPF-3 patient fibroblasts), 2.611 % of DMSO control; in the assay on αSMA (IPF-4 patient fibroblasts), 9.643 % of DMSO control. The “Nuclear localization (% of total cells)” value in the assay with YAP/TAZ (IPF-1 patient fibroblasts) is 20.52 % of total cells; in the assay on YAP/TAZ (IPF-2 patient fibroblasts), 39.79 % of total cells; in the assay on YAP/TAZ (IPF-3 patient fibroblasts), 41.17 % of total cells; in the assay with YAP/TAZ (IPF-4 patient fibroblasts), 19.82 % of total cells.

Regarding `C=CCN1C[C@H](C(=O)N(CCCN(C)C)C(=O)NCC)C[C@@H]2c3cccc4[nH]cc(c34)C[C@H]21` [Cabergoline], the “Nuclear localization (% of total cells)” value in the assay with YAP/TAZ (IPF-1 patient fibroblasts) is given as 57.02 % of total cells; with YAP/TAZ (IPF-2 patient fibroblasts), 57.41 % of total cells; in the assay with YAP/TAZ (IPF-3 patient fibroblasts) it was 45.95 % of total cells; in the assay on YAP/TAZ (IPF-4 patient fibroblasts) it was 68.69 % of total cells.

For `CN1C[C@@H](NS(=O)(=O)N(C)C)C[C@@H]2c3cccc4c3c(cn4C)C[C@H]21` [Mesulergine•HCl, Mesulergine], the “Nuclear localization (% of total cells)” value is recorded as 37.81 % of total cells in the assay on YAP/TAZ (IPF-1 patient fibroblasts), 45.14 % of total cells in the assay on YAP/TAZ (IPF-2 patient fibroblasts), 78.625 % of total cells with YAP/TAZ (IPF-3 patient fibroblasts) and 45.14 % of total cells with YAP/TAZ (IPF-4 patient fibroblasts).

As for `CCCN1C[C@H](CSC)C[C@@H]2c3cccc4[nH]cc(c34)C[C@H]21` [Pergolide mesylate, Pergolide], the “Nuclear localization (% of total cells)” value with YAP/TAZ (IPF-1 patient fibroblasts) is 82.49 % of total cells; in the assay on YAP/TAZ (IPF-2 patient fibroblasts), 69.37 % of total cells; with YAP/TAZ (IPF-3 patient fibroblasts) it was 70.67 % of total cells; in the assay on YAP/TAZ (IPF-4 patient fibroblasts), 65.58 % of total cells.

For `c1cnc(N2CCN(Cc3ccc4c(c3)OCO4)CC2)nc1` [Piribedil•2HCl, Piribedil], the “Nuclear localization (% of total cells)” value in the assay on YAP/TAZ (IPF-1 patient fibroblasts) was 61.58 % of total cells; in the assay with YAP/TAZ (IPF-2 patient fibroblasts) it was 85.76 % of total cells; in the assay with YAP/TAZ (IPF-3 patient fibroblasts), 59.05 % of total cells; with YAP/TAZ (IPF-4 patient fibroblasts), 59.64 % of total cells.

Regarding `CCCN[C@H]1CCc2nc(N)sc2C1` [Pramipexole Dihydrochloride Monohydrate, Pramipexole], the “Nuclear localization (% of total cells)” value in the assay on YAP/TAZ (IPF-1 patient fibroblasts) is 64.92 % of total cells; in the assay on YAP/TAZ (IPF-2 patient fibroblasts), 47.65 % of total cells; in the assay on YAP/TAZ (IPF-3 patient fibroblasts) it was 65.5 % of total cells; with YAP/TAZ (IPF-4 patient fibroblasts), 58.97 % of total cells.

For `Oc1cc2c(cc1O)[C@@H](c1ccccc1)CNCC2` [SKF 38393•HBr, SKF 38393], the “Nuclear localization (% of total cells)” value is recorded as 69.5873 % of total cells in the assay on YAP/TAZ (IPF-1 patient fibroblasts), 47.375 % of total cells in the assay with YAP/TAZ (IPF-2 patient fibroblasts), 61.33 % of total cells in the assay on YAP/TAZ (IPF-3 patient fibroblasts) and 35.79 % of total cells with YAP/TAZ (IPF-4 patient fibroblasts).
